We go through 2 molecules from US20250114487A1, “COMBINATION TREATMENT OF TUMORS” (The University of Chicago, priority 2023, published 2025).

Assay [1] relates to QGP-1 cells. As to the kind of experiment: Cell counting after irradiation with Fulvestrant and PARPi Talazoparib, QGP-1 cells. It counts as cell-based. The following applies: fulvestrant in combination with irradiation vs fulvestrant alone, 3 days after irradiation.
Excerpt: Total number of cells were counted 3 days after irradiation.
Assay [2] has as its system SSTR2. As to the kind of experiment: Western blot of SSTR2 levels, SSTR2 positive QGP1 cells. It counts as cell-based. The following applies: SSTR2 positive QGP1 cells treated with fulvestrant or fulvestrant and irradiation. (Immunoblotting shows a protein as a band on a membrane.)
Assay [3] relates to QGP1.SSTR2 mice. As to the kind of experiment: In vivo PRRT sensitization, xenograft mice (QGP1.SSTR2).
Method: In vivo studies were conducted in mice. […] Tumor volume and survival was assessed up to 100 days post injection.
Assay [4] concerns ESR1, Rad51, BRCA1, BRCA2 mRNA. The assay is described as follows: qPCR of mRNA expression of DNA repair factors in QGP-1 cells. It counts as cell-based. The following applies: QGP-1 cells treated with Fulvestrant for 36 hours or 72 hours. (In general: Real-time PCR tracks product formation cycle by cycle.)
Method: For in vitro experiments, various neuroendocrine tumor (NET) cell lines were used from different primary tumor origins. Specifically, pancreatic cells (QGP-1), small bowel cells (GOT-1), and lung cells (NCI-H727) were used. Cells were supplemented with estrogen (E2)-free or E2-supplemented media to determine the effects of E2 on cell proliferation and DNA repair factors. […] Knockdown of ESR1 was achieved using 30 uM siRNA. qPCR was performed to verify knockdown by quantifying ESR1 mRNA levels.
QGP-1 cells were growth in media with standard fetal bovine serum (WT), E2-free media for 7 days, or E-2 free media for 2 days followed by growth in E2 media containing 1 uM E2 additive for 24 hours. mRNA expression of DNA repair factors was evaluated by qPCR.
Assay [5] relates to GOT-1 cells. The assay is described as follows: In vitro radiosensitization, GOT-1 cells. It counts as cell-based. An excerpt: (§1) For in vitro experiments, various neuroendocrine tumor (NET) cell lines were used from different primary tumor origins. Specifically, pancreatic cells (QGP-1), small bowel cells (GOT-1), and lung cells (NCI-H727) were used. Cells were supplemented with estrogen (E2)-free or E2-supplemented media to determine the effects of E2 on cell proliferation and DNA repair factors. ESR1 was inhibited by si-RNA mediated knockdown of ESR1 or by administration of the selective estrogen receptor degrader Fulvestrant. Knockdown of ESR1 was achieved using […] siRNA. qPCR was performed to verify knockdown by quantifying ESR1 mRNA levels. For administration of Fulvestrant, 100 nm Fulvestrant was used.
(§2) Radiation (IR) was administered using a dose of 4 Gy using external beam radiation therapy (EBRT). Radiation was administered 24 hours following ESR1 inhibition.
(§3) Cells were treated with […] siRNA against ESR1 followed by irradiation (4 Gy dose), or treated with Fulvestrant followed by irradiation (4 Gy dose). […] Without wishing to be bound by theory, it is possible that estrogen inhibition radiosensitizes cells by decreasing expression of genes involved in DNA repair pathways. This was evaluated by measuring mRNA levels of DNA repair factors Rad51, BRCA1, and BRCA2 following treatment of QGP-1 cells with Fulvestrant for 36 hours or 72 hours.

The test system of assay [6] is QGP1.SSTR2 cells. The assay is described as follows: Additional clonogenic assays, QGP1.SSTR2 cells. It counts as cell-based. The following applies: single agent (5.6 μCi Lu-177 DOTA-TATE or fulvestrant) compared to untreated cells. The protocol: Additional clonogenic assays and in-vivo experiments were conducted using Lu-177 DOTA-TATE in combination with Fulvestrant. […] Results are quantified in FIG. 12B. Treatment with Lu-177-DOTA-TATE alone decreased the number of colonies compared to untreated cells and cells treated with fulvestrant alone. Treatment with fulvestrant alone decreased the number of colonies compared to untreated cells.

For assay [7], the system named is ER36 or ER56. As to the kind of experiment: Western blot of ERα isoform levels, NCI-H727 cells. It counts as cell-based. More on the design: dose or concentration left out as unconfirmed. The following applies: fulvestrant. How it is done:
(§4) Western blot analysis was conducted in various NET cell lines to investigate expression levels of various ERα isoforms. The breast cancer cell line MCF7 was used as a positive control. […] In contrast, the most common isoform of ERα, ER66 kDa, was not present in QGP1 cells, as compared to MCF7. Expression of ER36 was further verified in NCI-H727 cells (FIG. 8B). Expression of ER56 was further verified in NCI-H727 cells and BON1 cells (FIG. 8C). […] Without wishing to be bound by theory, it is possible that this lack of effect of fulvestrant is because ER36 and ER 56 lack the […] binding region to which fulvestrant binds. […] (FIG. 8E).

Assay [8] relates to QGP-1 tumors. The assay is described as follows: In vivo radiosensitization, mouse xenograft model with QGP-1 tumors. Particulars: for cumulative survival: IR (4 Gy) + 5 mg Fulvestrant subcutaneously compared to irradiation alone and Fulvestrant alone; for tumor volume size: compared to control groups. How it is done: For in vivo experiments, a mouse xenograft model created using QGP-1 cells was used.
as §2
Radiosensitization was subsequently evaluated in vivo using a mouse model harboring QGP-1 tumors. Four different treatment groups were used. One group was a control that received neither irradiation nor fulvestrant. The second group received fulvestrant alone (5 mg, subcutaneous). The third group received irradiation alone. The fourth group received irradiation and fulvestrant (5 mg. subcutaneous). Tumor volume and overall survival was evaluated. Tumor volume was evaluated at day 7, day 15, day 24, and day 35 post treatment. […] Control mice were euthanized between day 15 and day 24 due to deteriorating health. At day 24 and day 35, no control mice were surviving and as such results presented therein only show treatment with fulvestrant, treatment with irradiation, or treatment with fulvestrant and irradiation.

Assay [9] relates to QGP1 cells. As to the kind of experiment: QGP1 cell number after irradiation in the presence or absence of estrogen. The assay is classed as cell-based. The following applies: 3.5 days after irradiation (4 Gy). How it is done: Additional experiments were conducted to further evaluated the mechanism behind fulvestrant-induced radiosensitization. QGP1 cells were cultured in the presence or absence of estrogen and treated with fulvestrant, irradiation, or fulvestrant and irradiation. The number of cells were evaluated 3.5 days after irradiation (4 Gy). […] This is a strong indication that the effect of fulvestrant is off-target and not through the estrogen receptor pathway. RNA sequencing experiments were conducted to further evaluate the potential mechanism behind radiosensitization.

The test system of assay [10] is QGP-1 cells. The assay is described as follows: In vitro radiosensitization, QGP-1 cells. The assay is classed as cell-based. The following applies: 3.5 days following 100 nM Fulvestrant + IR (4 Gy) vs IR alone.
Excerpt: as §1, §2, §3

The test system of assay [11] is ER36 or ER56. The assay is described as follows: Western blot of ERα isoform levels, QGP1 cells. The following applies: 100 mM fulvestrant. It counts as cell-based. How it is done: as §4
Assay [12] concerns QGP1.SSTR2 cells or QGP1 cells not expressing SSTR2.
Method: Cells were treated with PRRT alone, or PRRT in combination with estrogen receptor inhibition or all-trans-retinoic acid (ATRA).
Assay [13] has as its system QGP1.SSTR2 cells. The following applies: 5.6 μCi dose of Lu-177 DOTA-TATE, alone or with 1 uM ATRA or 100 nM Fulvestrant.
Method: For in vitro studies, QGP1 cells (pancreatic NET cells) were engineered to express luciferase (QGP1.luc) or to express luciferase and overexpress the somatostatin receptor 2 (SSTR2) (QGP1.SSTR2.luc). Cells were treated with PRRT alone, or PRRT in combination with estrogen receptor inhibition or all-trans-retinoic acid (ATRA).

Read-outs that look alike come from different tables or passages of the source.

Consider `C[C@]12CC[C@@H]3c4ccc(O)cc4C[C@@H](CCCCCCCCC[S+]([O-])CCCC(F)(F)C(F)(F)F)[C@H]3[C@@H]1CC[C@@H]2O` (some centres unmarked) [Fulvestrant], for which the cell death entry in [1] is “increases cell death”. For the same molecule, the SSTR2 levels result in assay [2] was “did not increase”. Also, the results for the survival entry in assay [3] (compared to control mice) and in assay [8] (fulvestrant alone vs untreated control mice) were “did not show significant differences” and “significantly longer survival”, respectively. Besides, in [4], the “mRNA levels of Rad51, BRCA1, BRCA2” value is given as “lower”. The total cell growth entry in assay [5] (3.5 days following 100 nM Fulvestrant + irradiation (4 Gy) vs irradiation alone) and in [10] was “significant decrease” in each case. Further, the total cell result in assay [5] (5 days following 100 nM Fulvestrant + IR (4 Gy) vs IR alone) is “significant decrease”. In addition, the number of colonies result in [6] is reported as “decreased”. For the same molecule, the “ER36 or ER56 levels” value in assay [7] and in assay [11] was “not found to influence” throughout. For the same molecule, the cumulative survival result is recorded as “significantly improved survival” in assay [8] and “significantly improved cumulative survival” in assay [8] (listed as Fulevestrant). For the same molecule, the “survival, up to” value in assay [8] (combination of irradiation (4 Gy) and fulvestrant (5 mg, subcutaneous)) is reported as “up to 70 days”. Also, in assay [8] (day 35 post treatment, irradiation and fulvestrant compared to irradiation alone), the tumor volume entry is given as “significant decrease”. The tumor volume size entry is “decreased” in assay [8] (fulvestrant alone (5 mg, subcutaneous)) and “decreased” in assay [8] (irradiation plus fulvestrant (5 mg, subcutaneous)). Besides, in [8] (fulvestrant alone (5 mg, subcutaneous), untreated control not past day 18), the “survival, until day” value was at most 28 days. The “radiosensitization (number of cells)” value in assay [9] is “radiosensitizes cells regardless of whether estrogen was present or not present”.
`C[C@@H](O)[C@H](NC(=O)[C@@H]1CSSC[C@H](NC(=O)[C@@H](Cc2ccccc2)NC(=O)CN2CCN(CC(=O)[O-])CCN(CC(=O)[O-])CCN(CC(=O)[O-])CC2)C(=O)N[C@@H](Cc2ccc(O)cc2)C(=O)N[C@H](Cc2c[nH]c3ccccc23)C(=O)N[C@@H](CCCCN)C(=O)N[C@@H]([C@@H](C)O)C(=O)N1)C(=O)O.[177Lu+3]` [Lu-177 DOTA-TATE, lutetium Lu-177 DOTA-TATE]: the “mice surviving at day 100” value in assay [3] (Lu-177-DOTA-TATE alone) was “less than 25%”. The survival entry in assay [3] (compared to control mice and mice treated with fulvestrant) is on record as “significantly longer”. The tumor volume entry in [3] (day 7 and day 21 post injection, compared to control mice and mice treated with fulvestrant alone) is “significantly smaller”. Further, in assay [6], the number of colonies result is reported as “decreased”. Besides, the cell count result in [12] (5.6 μCi Lu-177 DOTA-TATE alone, FIG. 10B) was “about 150”; in assay [12] (14.6 μCi Lu-177 DOTA-TATE alone, FIG. 10C), “less than 40”. Moreover, in [13], the colony count result is listed as “about 40 cells”.
